Measurements from patent US4356322A, “Phenoxyalkanolamine derivatives” (Veb Arzneimittelwerk Dresden, priority 1977, dated 1982).
Where a name gives a salt, the structure may show the parent alone. Read-outs that look alike come from different tables or passages of the source.

Legend:
circulation of dogs = experiment: effects on the circulation of dogs under continual intravenous infusion; type: in vivo, dog; conditions: for ED30: Canis lupus familiaris, iv; for effective period / heart's oxygen demand / peripheral cardiovascular system: in vivo; for contractility, cardiac frequency and cardiac output: increases occur at approximately parallel rates
Excerpt: Column 1: Infusion rate in μg/kg/min
Column 2: Cumulative dose in μg/kg
Rate of pressure increase in the left ventricle (dp/dt/max) in mm Hg·s^-1
ED30 =dosage for 30% increase in inotropy, in μg/kg
Max=maximum increase in percent in inotropy at dose μg/kg
Column 4: Cardiac frequency in n·min^-1
ED30 =dosage for 30% increase in frequency, in μg/kg
Max=maximum increase in percent in frequency at dose μg/kg
Column 5: Cardiac output ml·min^-1 ·kg^-1
Column 6: Diastolic blood pressure in mm Hg
Column 7: Number of animals used in the experiments
X=median values (initial value and after cumulative dose)
%=change in percent of initial value
In these experiments, the compounds were used in the form of hydrochlorides.

in vivo = conditions: rat, iv
cat = experiment: β-mimetic effect on contractility and cardiac frequency in anesthetized cat; type: in vivo; conditions: HCl salt
β-receptor = conditions: M. J. Davey, Arch. Pharmacol. 179 (1973); cited from earlier work
rats = conditions: rat, intravenous, acute; HCl salt
[1] = dog, i.v. infusion, read-out: ED30, dosage for 30% increase in frequency
[2] = dog, i.v. infusion, read-out: ED30, dosage for 30% increase in inotropy
[3] = dog, 12,5 μg/kg/min, cumulative dose --
[4] = dog, at 50 μg/kg, i.v. infusion
[5] = dog, 1,00 μg/kg/min, cumulative 30,0 μg/kg
[6] = dog, 0,25 μg/kg/min, cumulative 15,0 μg/kg
[7] = dog, at 15 μg/kg, i.v. infusion
[8] = dog, 1,00 μg/kg/min, cumulative 10,0 μg/kg
[9] = dog, at 30 μg/kg, i.v. infusion
[10] = dog, 1,00 μg/kg/min, cumulative 20,0 μg/kg
[11] = dog, 0,125 μg/kg/min, cumulative dose --
[12] = dog, at 0,1875 (μg/kg), i.v. infusion
[13] = dog, 10,0 μg/kg/min, cumulative 200 μg/kg

## CC(CCc1ccc(O)cc1)NCCc1ccc(O)c(O)c1 (stereo not drawn) [Dobutamine, reference compound]
Circulation of dogs; [1]
  ED30: 23 µg/kg
Circulation of dogs; [2]
  ED30: 7.5 µg/kg
Circulation of dogs; at higher dosages
  frequency and cardiovascular dilation: strong increases in frequency and in cardiovascular dilation
Circulation of dogs; [3]
  Cardiac frequency, change in percent of initial value: +8%
  Cardiac frequency, median initial value - value after dose: 78-84 n.min^-1
  Cardiac output, change in percent of initial value: +23%
  Cardiac output, median initial value - value after dose: 152 to 186 mL/min/kg
  Diastolic blood pressure, change in percent of initial value: +3%
  Diastolic blood pressure, median initial value - value after dose: 101-103 mm Hg
  dp/dt max, change in percent of initial value: +75%
  dp/dt max, median initial value - value after dose: 3088-5410 mm Hg.s^-1
Circulation of dogs; [4]
  Max, maximum increase in percent in frequency: +56%
  Max, maximum increase in percent in inotropy: +191%
Circulation of dogs; dog
  effective period: equal to the rather brief effective period of isoprenaline
Circulation of dogs; in words
  inotropy: strong rise in inotropy

## OC(CNCCNc1ccccc1Cl)COc1ccccc1 (stereo not drawn) [Example 1, 3-[β-(2-chlorophenylamino)-ethyl]-amino-2-hydroxy-1-phenoxypropane]
In vivo
  LD50: 21000 µg/kg
Circulation of dogs; [1]
  ED30: 20 µg/kg
Circulation of dogs; [2]
  ED30: 11 µg/kg
Circulation of dogs; [5]
  Cardiac frequency, change in percent of initial value: +34%
  Cardiac frequency, median initial value - value after cumulative dose: 80-107 n.min^-1
  Cardiac output, change in percent of initial value: +69%
  Cardiac output, median initial value - value after cumulative dose: 115 to 195 mL/min/kg
  Diastolic blood pressure, change in percent of initial value: +2%
  Diastolic blood pressure, median initial value - value after cumulative dose: 111-113 mm Hg
  dp/dt max, change in percent of initial value: +76%
  dp/dt max, median initial value - value after cumulative dose: 3028-5326 mm Hg.s^-1
Circulation of dogs; [4]
  Max, maximum increase in percent in inotropy: +91%
Circulation of dogs; dog, at 60 μg/kg, i.v. infusion
  Max, maximum increase in percent in frequency: +37%
cat; D 0.01 mg/kg i.v.
  HR, percent change from initial value in heart frequency: +11%
  dp/dt max, percent change from initial value, left ventricle: +59%

## Cc1cccc(C)c1NCCNCC(O)COc1ccccc1 (stereo not drawn) [Example 7, 3-[β-(2,6-dimethylphenylamino)-ethyl]-amino-2-hydroxy-1-phenoxypropane hydrochloride]
In vivo
  LD50: 32000 µg/kg
Circulation of dogs; [1]
  ED30: 15 µg/kg
Circulation of dogs; [2]
  ED30: 5 µg/kg
Circulation of dogs; [6]
  Cardiac frequency, change in percent of initial value: +30%
  Cardiac frequency, median initial value - value after cumulative dose: 72-93 n.min^-1
  Cardiac output, change in percent of initial value: +35%
  Cardiac output, median initial value - value after cumulative dose: 138 to 185 mL/min/kg
  Diastolic blood pressure, change in percent of initial value: -3%
  dp/dt max, change in percent of initial value: +72%
  dp/dt max, median initial value - value after cumulative dose: 3834-6590 mm Hg.s^-1
Circulation of dogs; [7]
  Max, maximum increase in percent in frequency: +30%
  Max, maximum increase in percent in inotropy: +72%
cat; D 0.01 mg/kg i.v.
  HR, percent change from initial value in heart frequency: +14%
  dp/dt max, percent change from initial value, left ventricle: +104%

## O=[N+]([O-])c1cccc(NCCNCC(O)COc2ccccc2)c1 (stereo not drawn) [Example 16, 3-[β-(3-nitrophenylamino)-ethyl]-amino-2-hydroxy-1-phenoxypropane]
In vivo
  LD50: 44000 µg/kg
Circulation of dogs; [1]
  ED30: 20 µg/kg
Circulation of dogs; [2]
  ED30: 5 µg/kg
Circulation of dogs; [8]
  Cardiac frequency, change in percent of initial value: +13%
  Cardiac frequency, median initial value - value after cumulative dose: 83-94 n.min^-1
  Cardiac output, change in percent of initial value: +32%
  Cardiac output, median initial value - value after cumulative dose: 129 to 169 mL/min/kg
  dp/dt max, change in percent of initial value: +71%
  dp/dt max, median initial value - value after cumulative dose: 3068-5230 mm Hg.s^-1
Circulation of dogs; [9]
  Max, maximum increase in percent in frequency: +39%
  Max, maximum increase in percent in inotropy: +100%
cat; D 0.01 mg/kg i.v.
  HR, percent change from initial value in heart frequency: +13%
  dp/dt max, percent change from initial value, left ventricle: +57%

## Nc1cccc(NCCNCC(O)COc2ccccc2)c1 (stereo not drawn) [Example 17, 3-[β-(3-aminophenylamino)-ethyl]-amino-2-hydroxy-1-phenoxypropane trihydrochloride]
In vivo
  LD50: 66000 µg/kg
Circulation of dogs; [1]
  ED30: 16 µg/kg
Circulation of dogs; [2]
  ED30: 5.5 µg/kg
Circulation of dogs; [10]
  Cardiac frequency, change in percent of initial value: +33%
  Cardiac frequency, median initial value - value after cumulative dose: 85-113 n.min^-1
  Cardiac output, change in percent of initial value: +44%
  Cardiac output, median initial value - value after cumulative dose: 138 to 198 mL/min/kg
  Diastolic blood pressure, change in percent of initial value: +1%
  Diastolic blood pressure, median initial value - value after cumulative dose: 103-104 mm Hg
  dp/dt max, change in percent of initial value: +84%
  dp/dt max, median initial value - value after cumulative dose: 3071-5663 mm Hg.s^-1
Circulation of dogs; dog, at 40 μg/kg, i.v. infusion
  Max, maximum increase in percent in inotropy: +93%
Circulation of dogs; [4]
  Max, maximum increase in percent in frequency: +49%
cat; D 0.01 mg/kg i.v.
  HR, percent change from initial value in heart frequency: +19%
  dp/dt max, percent change from initial value, left ventricle: +84%

## CC(C)NCC(O)c1ccc(O)c(O)c1 (stereo not drawn) [Isoprenaline-Sulphate, reference compound]
Circulation of dogs; [1]
  ED30: 0.06 µg/kg
Circulation of dogs; [11]
  Cardiac frequency, change in percent of initial value: +51%
  Cardiac frequency, median initial value - value after dose: 76-115 n.min^-1
  Cardiac output, change in percent of initial value: +94%
  Cardiac output, median initial value - value after dose: 130 to 253 mL/min/kg
  Diastolic blood pressure, change in percent of initial value: -3%
  dp/dt max, change in percent of initial value: +64%
  dp/dt max, median initial value - value after dose: 3136-5140 mm Hg.s^-1
Circulation of dogs; [12]
  Max, maximum increase in percent in frequency: +75%
  Max, maximum increase in percent in inotropy: +116%
Circulation of dogs; dog
  effective period: rather brief
  heart's oxygen demand: excessive rise in the heart's oxygen demand
  peripheral cardiovascular system: a dilation of the peripheral cardiovascular system
Circulation of dogs
  contractility, cardiac frequency and cardiac output: increases in contractility, cardiac frequency and cardiac output

## CC(C)NCC(O)COc1cccc2ccccc12 (stereo not drawn) [Propranolol, reference compound]
cat; D 0.10 mg/kg i.v.
  HR, percent change from initial value in heart frequency: -8%
  dp/dt max, percent change from initial value, left ventricle: -8%

## Cc1ccccc1OCC(O)CNCCOc1ccc(C(N)=O)cc1 (stereo not drawn) [Tolamolol, 1-[2-(4-carbamoylphenoxy)-ethylamino]-3-(2-methylphenoxy)-propan-2-ol, reference compound]
In vivo
  LD50: 133000 µg/kg
β-receptor
  intrinsic sympathicomimetic activity: does not exhibit an "intrinsic sympathicomimetic activity"
  β-blocking efficacy compared with propranolol: about equal to that of propranolol
  β-receptor blocking selectivity: cardioselective β-receptor blocking agent
cat; D 0.10 mg/kg i.v.
  HR, percent change from initial value in heart frequency: -10%
  dp/dt max, percent change from initial value, left ventricle: -17%

## COc1cccc(C(=O)CCN[C@@H](C)[C@H](O)c2ccccc2)c1.Cl [d-l-Oxyphedrine Hydrochloride, reference compound]
rats
  LD50: 26000 µg/kg
Circulation of dogs; [13]
  Cardiac frequency, change in percent of initial value: +56%
  Cardiac frequency, median initial value - value after cumulative dose: 75-117 n.min^-1
  Cardiac output, change in percent of initial value: +65%
  Cardiac output, median initial value - value after cumulative dose: 112 to 186 mL/min/kg
  Diastolic blood pressure, change in percent of initial value: -13%
  dp/dt max, change in percent of initial value: +50%
  dp/dt max, median initial value - value after cumulative dose: 3072-4600 mm Hg.s^-1
Circulation of dogs; dog, at 500 μg/kg, i.v. infusion
  Max, maximum increase in percent in inotropy: +89%
Circulation of dogs; dog, at 600 μg/kg, i.v. infusion
  Max, maximum increase in percent in frequency: +104%
Circulation of dogs; dog, i.v. infusion
  ED30, dosage for 30% increase in frequency: 130 µg/kg
  ED30, dosage for 30% increase in inotropy: 130 µg/kg
Circulation of dogs; dog
  heart's oxygen demand: excessive rise in the heart's oxygen demand
  peripheral cardiovascular system: a dilation of the peripheral cardiovascular system
Circulation of dogs
  contractility, cardiac frequency and cardiac output: increases in contractility, cardiac frequency and cardiac output
cat; D 0.50 mg/kg i.v.
  HR, percent change from initial value in heart frequency: +2%
  dp/dt max, percent change from initial value, left ventricle: +38%
